What was measured:
[1] = calcein-AM assay of cell viability (imaging flow cytometry); assay type: cell-based; conditions: human, Jurkat cells; irrespective of DMSO content (2.5%, 5%, 10% v/v) and time point (T0, freeze-thaw, control)
Procedure: Freeze-thaw stress. DMSO, cooled on wet ice, was slowly added to cell suspensions (placed on wet ice) to reach a target concentration 1%, 2.5%, 5% and 10% (v/v) at a cell concentration of 1×10^6 cells/ml. Further, five 1-ml aliquots were prepared in 1.8-ml Nalgene cryovials, which were submitted to freezing at −18° C. for 3 hours. This amount of time was sufficient for complete freezing of the aliquots. Prior to analysis, the samples were thawed for 2 min at 37° C., pooled and washed with fresh RPMI medium. Control samples were stored at 20° C. for 3 hours and were otherwise treated identically as the freeze-thawed samples.
Imaging flow cytometry. To assess cell viability based on cell metabolism, imaging flow cytometry was used in combination with the membrane-permeable dye calcein-AM (calcein-AM assay), at a final concentration of 6.3 nM in the sample to be analyzed. […] Subsequently, samples were analyzed by using an Amnis FlowSight imaging flow cytometer (Luminex, Seattle, USA) and data was analyzed using IDEAS 6.2.183 (Luminex, Seattle, USA) image analysis software. […] The side scatter laser was set to 10 mW and the 488 nm fluorescence excitation laser was set to 12 mW. Images of the calcein-AM stained cells were recorded in channel 02 (532/55 nm). […]

Jurkat cells [2] = experiment: Annexin V-FITC / PI fluorescence-based flow cytometry assay (apoptosis, necrosis)
Procedure: (§1) Cell apoptosis and necrosis were determined by imaging flow cytometry after labelling of the cells with FITC and PI. Sample preparation was carried out according to the Dead Cell Apoptosis Kit instructions. After incubation for 15 min in the dark at room temperature samples were kept on wet ice until analysis. After adjusting the excitation power of the FlowSight imaging flow cytometer to 4 mW, the same instrument settings as described in for the calcein-AM assay above was used. Brightfield as well as fluorescence images in channels 02 (532/55 nm) for FITC and channel 4 (610/30 nm) for PI were recorded. Appropriate morphological filters based on mean intensity, area, aspect ratio and modulation from channel 09 were applied to discriminate between single cells and cell aggregates or debris particles. Once single cells were selected based on brightfield images, mean intensity values from channel 02 (fluorescence) were plotted against the particle area (erode mask) where the positively stained cells were classified as viable.
For selection of necrotic cells, two separate methods were used to induce cell necrosis. […] Images of debris particles were manually selected from measured suspensions of cells submitted to vortexing for approximately 2 min or two freeze-thaw cycles (−140° C.-37° C.).

Jurkat cells [3] = experiment: FIM-CNN (FlowCam) cell counts and viability after forced degradation; assay type: cell-based
Procedure: Freeze-thaw stress. […] Further, five 1-ml aliquots were prepared in 1.8-ml Nalgene cryovials, which were submitted to freezing at −18° C. for 3 hours. This amount of time was sufficient for complete freezing of the aliquots. Prior to analysis, the samples were thawed for 2 min at 37° C., pooled and washed with fresh RPMI medium. Control samples were stored at 20° C. for 3 hours and were otherwise treated identically as the freeze-thawed samples. Shaking stress. […] The cryovials were submitted to shaking by constant horizontal agitation at 185 rpm at 25° C. by using an IC 4000 shaker (IKA, Germany). Analysis of cell suspensions of pooled cell aliquots was performed following 3 hours of shaking. Control samples were stored statically and protected from light at 25° C. in cryovials, and subsequently pooled. Flow imaging microscopy (FlowCam, FIM). Cells (viable and necrotic) and debris particles were quantified by using a FlowCam 8100 (Fluid Imaging Technologies, Scarborough, USA) equipped with a 50-μflow cell. […] In total, a sample volume of 140 μL was measured with an efficiency of approximately 63% (i.e., the imaged sample volume was ca. 87 μL). Particles imaged within the flow cell were detected with intensity thresholds of 12 for light and dark pixels. […] Collected images were not sorted by using any morphological filters and samples were measured in triplicate, unless otherwise stated. Image analysis using convolutional neural networks. Particle images captured by using FlowCam were analyzed by using convolutional neural networks (CNN). […] Briefly, the VGG-19 network using rectified linear unit activation functions, punctuated with max-pooling and dropout layers, was pre-trained on the ImageNet dataset (http://image-netorg). The re-training of the network was performed with the first ten layers frozen in order to save computation time and improve accuracy of the model by preserving its pre-learned feature recognition capabilities. For fine-tuning the dataset was split into an 8:1:1 ratio for training, validation and testing, respectively. […]

Jurkat cells [4] = experiment: in vitro
Text: (§2) Generation of particle images for population discrimination. The CNN was retrained on manually labelled images (4,000-4,500) of each of the three populations: viable cells, necrotic cells and debris particles. […] For selection of necrotic cells, two separate methods were used to induce cell necrosis. […] In order to further define image populations of viable and necrotic cells for the network fine-tuning, morphological parameters, such as aspect ratio, circle fit, convexity, sigma intensity and symmetry, of the two populations were used. Only particles (cells) of morphological parameter values falling between the 10th and 90th percentile of the manually selected population as viable and necrotic cells were taken for input to the training of the model. Images of debris particles were manually selected from measured suspensions of cells submitted to vortexing for approximately 2 min or two freeze-thaw cycles (−140° C.-37° C.).
as §1

in vitro = conditions: human
Text: as §2, §1

[5] = cell suspensions frozen with 2.5% (v/v) DMSO
[6] = staurosporin 1 μM to 500.000 cells/mL, Annexin V-FITC & PI double staining

## C[S+](C)[O-] [DMSO, dimethyl sulfoxide]
[1]
  viability: 85 to 90%
Jurkat cells [2]; human, 3 h
  increase in apoptotic cell content: ~2 fold
Jurkat cells [3]; 0% and 1% (v/v) DMSO, one freeze-thaw cycle (−18° C. 3 hours, thawing 2 min at 37° C.)
  reduction of cell counts: > 98%
Jurkat cells [3]; [5]
  losses in viability (FIM-CNN assay): ca. 20%
Jurkat cells [3]; exposure of 3 hours at RT, 10% (v/v)
  toxic effects of DMSO (FIM): loss of cell viability
Jurkat cells [4]
  toxic effects of DMSO (PI assay): loss of cell viability
Jurkat cells [4]; 5% and 10% (v/v) DMSO, freeze-thawed and control samples compared to T0
  drop in cell viability (PI assay): ca. 10%
Jurkat cells [4]; [5]
  losses in viability (PI assay): ca. 20%

## CCO [ethanol, reference compound]
In vitro
  viability at 90 min, 10 % (v/v): 12.8%

## CN[C@@H]1C[C@H]2O[C@@](C)([C@@H]1OC)n1c3ccccc3c3c4c(c5c6ccccc6n2c5c31)C(=O)NC4 [staurosporin]
Jurkat cells [2]; [6]
  necrotic cells: around 6%
  viable cells: ~ 2%
